Measurements from article PMC10225205 (Cancer Medicine, 2023).
Read-outs that look alike come from different tables or passages of the source.

Tests used:
[1] = test system: refractory advanced malignancies; settings: cited from earlier work
[2] = test system: advanced solid tumors; assay: FIGHT-102 efficacy, investigator-assessed RECIST 1.1; assay type: in vivo, human; set-up: key to Best overall response: PR, partial response; SD, stable disease; PD, progressive disease; NE, not evaluable
Experimental: Efficacy assessments occurred at screening (baseline scan) and on Day 15 of every third cycle with a ±2‐day window. Tumor status was assessed by the investigator using appropriate disease‐specific techniques. For solid tumors, the Response Evaluation Criteria in Solid Tumors (RECIST) 1.1 criteria were used,[19] and the recommended method for measuring tumor burden was computed tomography scan. Alternative modalities compatible with RECIST 1.1 could be used at the investigator's discretion provided they were used consistently throughout the study.
Both the efficacy and the safety population included all patients who received at least 1 dose of study drug. The PK/pharmacodynamic population included all patients who received at least one dose of study drug and provided at least one postdose plasma sample for PK/pharmacodynamic measurement. No comparisons are made between patients or against historical controls; only comparisons to pretreatment conditions were made.

[3] = cited from earlier work
[4] = human, in vivo
[5] = Part 1, 13.5 mg ID, breast cancer, local no alteration detected
[6] = Part 1, 13.5 mg ID, cholangiocarcinoma, central FGF1 amp, FGFR2 amp
[7] = Part 1, 13.5 mg ID, other (intrahepatic cholangiocarcinoma), central no alteration detected
[8] = Part 1, 13.5 mg ID, other (lower bile duct cancer), central FGF6 mutation (p.S143N)
[9] = Part 1, 18 mg ID, neuroendocrine cancer, local FGF6/23 amp
[10] = Part 1, 18 mg ID, other (intrahepatic cholangiocarcinoma), not tested
[11] = Part 2, 13.5 mg CD, breast cancer, local FGFR1 amp, FGFR3 mutation
[12] = Part 2, 13.5 mg CD, colorectal cancer, central FGFR1 amp
[13] = Part 2, 13.5 mg CD, gallbladder cancer, central FGF3/4/19 amp
[14] = Part 2, 13.5 mg CD, other (prostate cancer), central FGFR1 amp
[15] = Part 2, 13.5 mg CD, other (rectal cancer), central FGFR1 amp
[16] = Part 2, 13.5 mg CD, other (uterine cervix carcinoma), central FGFR2 amp
[17] = Part 2, 13.5 mg CD, urothelial tract/bladder cancer (bladder cancer), central FGF3/4/19 amp, FGFR3 alteration
[18] = Part 2, 13.5 mg CD, urothelial tract/bladder cancer (renal pelvis cancer), central FGF3/4/19 amp
[19] = Part 2, 13.5 mg ID, breast cancer, central FGFR1 amp
[20] = Part 2, 13.5 mg ID, cholangiocarcinoma, central FGFR2 alteration, local FGFR2 translocation
[21] = Part 2, 13.5 mg ID, cholangiocarcinoma, central FGFR3 mutation
[22] = Part 2, 13.5 mg ID, colorectal cancer, central FGFR1 amp
[23] = Part 2, 13.5 mg ID, esophageal cancer, central FGF3/4/12/19 amp
[24] = Part 2, 13.5 mg ID, esophageal cancer, central FGFR1 amp
[25] = Part 2, 13.5 mg ID, lung cancer (NSCLC), central FGFR1 amp, FGF12 amp
[26] = Part 2, 13.5 mg ID, other (apocrine sweat gland carcinoma), central FGFR2 amp
[27] = Part 2, 13.5 mg ID, other (intrahepatic cholangiocarcinoma), central FGFR3 fusion
[28] = Part 2, 13.5 mg ID, other (urachal cancer), central FGF3 amp
[29] = Part 2, 13.5 mg ID, urothelial tract/bladder cancer (bladder cancer), central FGFR3 mutation (p.Y373C)
[30] = Part 2, 13.5 mg ID, urothelial tract/bladder cancer (renal pelvis cancer), central FGF3/4/19 amp

## CCN1C(=O)N(c2c(F)c(OC)cc(OC)c2F)Cc2cnc3[nH]c(CN4CCOCC4)cc3c21 [Pemigatinib]
[1]; FGFR fusions or rearrangements, 95% CI 2.8–10.0
  Median progression-free survival: 5.7 months
[1]; FGFR fusions or rearrangements, 95% CI 8.7–49.1
  Objective response rate: 25.0%
[1]; across tumor types
  Partial responses: 12 n
[1]; all patients, 95% CI 4.9–15.8
  Objective response rate: 9.4%
[1]; all responders, 95% CI 3.3–14.5
  Median duration of response: 7.3 months
[2]; Part 1
  Best overall response of complete response or PR: no patient
  Median best percentage change from baseline in target lesion size: −2.6%
[2]; Part 1, 7 patients
  Best overall response stable disease: 50.0%
[2]; Part 1, 9 mg ID, gastric cancer
  Best overall response: SD
[2]; Part 1, 9 mg ID, gastric cancer, central and local not tested
  Best change in sum of target lesion diameters: –13.3%
[2]; Part 1, 9 mg ID, other (epithelioid hemangioendothelioma)
  Best overall response: SD
[2]; Part 1, 9 mg ID, other (epithelioid hemangioendothelioma), central and local not tested
  Best change in sum of target lesion diameters: –12.6%
[2]; Part 1, 9 mg ID, other (medulloblastoma), local no alteration detected
  Best overall response: PD
[2]; [5]
  Best change in sum of target lesion diameters: 28.1%
  Best overall response: PD
[2]; [6]
  Best change in sum of target lesion diameters: –8.5%
  Best overall response: SD
[2]; Part 1, 13.5 mg ID, colorectal cancer, FGFR1 amp
  Best overall response: PD
[2]; Part 1, 13.5 mg ID, colorectal cancer, central and local FGFR1 amp
  Best change in sum of target lesion diameters: –21.1%
[2]; Part 1, 13.5 mg ID, lung cancer (NSCLC)
  Best overall response: SD
[2]; Part 1, 13.5 mg ID, lung cancer (NSCLC), not tested
  Best change in sum of target lesion diameters: –29.0%
[2]; [7]
  Best change in sum of target lesion diameters: 4.4%
  Best overall response: SD
[2]; [8]
  Best change in sum of target lesion diameters: –5.1%
  Best overall response: SD
[2]; [9]
  Best change in sum of target lesion diameters: 37.5%
  Best overall response: PD
[2]; Part 1, 18 mg ID, other (intrahepatic cholangiocarcinoma), central none, local FGFR2 fusion
  Best change in sum of target lesion diameters: 0%
[2]; Part 1, 18 mg ID, other (intrahepatic cholangiocarcinoma), local FGFR2 fusion
  Best overall response: SD
[2]; [10]
  Best change in sum of target lesion diameters: 16.7%
  Best overall response: PD
[2]; Part 1, 18 mg ID, other (pancreatic head cancer)
  Best overall response: PD
[2]; Part 1, 18 mg ID, other (pancreatic head cancer), local no alteration detected
  Best change in sum of target lesion diameters: 1.0%
[2]; Part 2
  Median of best percentage change from baseline in target lesion size: 15.2%
[2]; Part 2, 13.5 mg CD
  Patients achieving PR: 4 n
[2]; Part 2, 13.5 mg ID
  Patients achieving PR: 1 n
[2]; Part 2, 5 patients
  Partial response: 16.7%
[2]; Part 2, 6 patients
  Stable disease: 20%
[2]; [11]
  Best change in sum of target lesion diameters: 6.4%
  Best overall response: NE
[2]; Part 2, 13.5 mg CD, breast cancer, local FGFR2 amp (best change –26.2%)
  Best overall response: SD
[2]; Part 2, 13.5 mg CD, breast cancer, local FGFR2 amp (best change –44.4%)
  Best overall response: PR
[2]; Part 2, 13.5 mg CD, breast cancer, local FGFR2 amp (patient with PR)
  Best change in sum of target lesion diameters: –44.4%
[2]; Part 2, 13.5 mg CD, breast cancer, local FGFR2 amp (patient with SD)
  Best change in sum of target lesion diameters: –26.2%
[2]; Part 2, 13.5 mg CD, cholangiocarcinoma, central none, local FGFR2 translocation
  Best change in sum of target lesion diameters: –30.6%
[2]; Part 2, 13.5 mg CD, cholangiocarcinoma, local FGFR2 translocation
  Best overall response: PR
[2]; [12]
  Best change in sum of target lesion diameters: 26.5%
  Best overall response: PD
[2]; Part 2, 13.5 mg CD, colorectal cancer, central none, local FGF19 amp
  Best change in sum of target lesion diameters: 41.0%
[2]; Part 2, 13.5 mg CD, colorectal cancer, local FGF19 amp
  Best overall response: PD
[2]; Part 2, 13.5 mg CD, esophageal cancer, FGFR3 translocation: fusion
  Best overall response: SD
[2]; Part 2, 13.5 mg CD, esophageal cancer, central and local FGFR3 translocation: fusion
  Best change in sum of target lesion diameters: –4.3%
[2]; [13]
  Best change in sum of target lesion diameters: –43.8%
  Best overall response: PR
[2]; [14]
  Best change in sum of target lesion diameters: 15.2%
  Best overall response: PD
[2]; [15]
  Best change in sum of target lesion diameters: 0.0%
  Best overall response: SD
[2]; [16]
  Best change in sum of target lesion diameters: 22.7%
  Best overall response: PD
[2]; [17]
  Best change in sum of target lesion diameters: –37.2%
  Best overall response: PR
[2]; [18]
  Best change in sum of target lesion diameters: 12.1%
  Best overall response: PD
[2]; [19]
  Best change in sum of target lesion diameters: 18.1%
  Best overall response: PD
[2]; [20]
  Best change in sum of target lesion diameters: –13.8%
  Best overall response: SD
[2]; [21]
  Best change in sum of target lesion diameters: 30.9%
  Best overall response: PD
[2]; [22]
  Best change in sum of target lesion diameters: 44.7%
  Best overall response: PD
[2]; [23]
  Best change in sum of target lesion diameters: 34.9%
  Best overall response: PD
[2]; Part 2, 13.5 mg ID, esophageal cancer, central FGF3/4/19 amp, local FGF19 amp
  Best overall response: PD
[2]; [24]
  Best change in sum of target lesion diameters: 6.5%
  Best overall response: SD
[2]; Part 2, 13.5 mg ID, esophageal cancer, central FGFR1 amp, FGF3/4/19 amp (first of two such patients)
  Best change in sum of target lesion diameters: 37.8%
[2]; Part 2, 13.5 mg ID, esophageal cancer, central FGFR1 amp, FGF3/4/19 amp (first of two)
  Best overall response: PD
[2]; Part 2, 13.5 mg ID, esophageal cancer, central FGFR1 amp, FGF3/4/19 amp (second of two such patients)
  Best change in sum of target lesion diameters: 3.0%
[2]; Part 2, 13.5 mg ID, esophageal cancer, central FGFR1 amp, FGF3/4/19 amp (second of two)
  Best overall response: PD
[2]; Part 2, 13.5 mg ID, gallbladder cancer, central none, local FGFR3 mutation
  Best change in sum of target lesion diameters: 25.0%
[2]; Part 2, 13.5 mg ID, gallbladder cancer, local FGFR3 mutation
  Best overall response: PD
[2]; [25]
  Best change in sum of target lesion diameters: 22.2%
  Best overall response: PD
[2]; [26]
  Best change in sum of target lesion diameters: –42.1%
  Best overall response: PR
[2]; [27]
  Best change in sum of target lesion diameters: 65.2%
  Best overall response: PD
[2]; [28]
  Best change in sum of target lesion diameters: 44.8%
  Best overall response: PD
[2]; Part 2, 13.5 mg ID, pancreatic cancer (neuroendocrine), central FGFR1 amp
  Best overall response: PD
[2]; Part 2, 13.5 mg ID, pancreatic cancer (neuroendocrine), central FGFR1 amp, local FGFR1 mutation (p.N577K)
  Best change in sum of target lesion diameters: 40.8%
[2]; [29]
  Best change in sum of target lesion diameters: –19.6%
  Best overall response: SD
[2]; [30]
  Best change in sum of target lesion diameters: 24.2%
  Best overall response: PD
[2]; responders, Part 2, 95% CI: 4.17, 14.95
  Median duration of response: 9.56 months
[3]; 13.5 mg QD steady state, CV% 54.1
  AUC0-24 geometric mean: 2.62 µM·h
[3]; 13.5 mg QD, CV% 51.6
  Geometric mean half-life: 15.4 h
[3]; 13.5 mg QD, CV% 56.4, read-out: Steady-state Cmax geometric mean
  Cmax: 236 nM
[3]; dose-independent
  Terminal half-life: 15 h
[3]; doses of ≥6 mg
  Time to reach Cmax: 1 to 2 h
[4]
  Geometric mean fraction of dose excreted in urine: 2.48%
[4]; 9 mg
  CLss/F, geometric mean (CV%): 8.99 (91.0) L/h
  CLss/F, mean ± SD: 10.6 ± 6.31 L/h
  tmax, median: 0.967 h
[4]; 18 mg
  CLss/F, geometric mean (CV%): 5.63 (43.8) L/h
  CLss/F, mean ± SD: 5.96 ± 2.50 L/h
  tmax, median: 0.833 h
